Here are results for five compounds from patent publication US12227536B2, “Crystalline forms of an NRTTI compound” (Merck Sharp & Dohme LLC, priority 2018, dated 2025).

Data set [1] deals with lymphoid derived cell lines and peripheral blood mononuclear cells. To be noted: in vitro; cited from earlier work.
Data set [2] in a line: Solubility of EFdA Forms 1, 2 and 4 in acetonitrile as a function of temperature. The format is physicochemical. To be noted: for Solubility / Solubility Ratio (Form 1/4): acetonitrile; for Form 1 and Form 4 ΔΔG: calculated; for Relative thermodynamic stability of the phase: from solubility in acetonitrile between 25.0 and 65.0 °C. The method, then:
The Gibbs free energy (ΔG) of a phase is the fundamental thermodynamic parameter that determines the relative stability of a polymorphs at a given temperature. The solubility of a particular polymorph is related to the ΔG by the equation ΔG=−RTln (solubility). The polymorph with the lowest solubility is considered to be the thermodynamically stable phase at a given temperature. Table 6 lists the measured solubility for Forms 1, 2 and 4 of EFdA in acetonitrile between 25.0 and 65.0° C. […] The relatively low ΔΔG values for conversion of Form 1 to Form 4 (i.e., the energy gap between Form 1 and Form 4 is small; 0.21-0.35 kJ/mol), combined with the fast crystallization kinetics of Form 1 as compared to Form 4, result in difficulties isolating Form 4 using conventional methods of polymorph screening.

The nature of data set [3]: Critical water activity from solubility in acetonitrile as a function of water content. Type of data set: physicochemical. To be noted: 25 °C. On the procedure:
The thermodynamic parameter for the stability of the monohydrate Form MH and anhydrate Form 4 of EFdA is the critical water activity. Below this water activity, anhydrous Form 4 is thermodynamically preferred. Above this water activity, monohydrate Form MH is thermodynamically preferred. The solubility of EFdA monohydrate Form MH and anhydrate Forms 1 and 4 were determined in acetonitrile as a function of water content at 25.0° C. The critical water activity for the EFdA monohydrate/Form 4 system at 25° C. was determined to be 0.3.

The nature of data set [4]: Crystal form stability in hot melt extrusion (HME) of EFdA/EVA implant product, by XRD. The format is physicochemical. The method, then: Anhydrate crystalline Forms 1, 2, and 4 of EFdA were isolated by hot melt extrusion (HME) processing. Micronized ethylene vinyl acetate (EVA) polymer and monohydrate crystalline Form MH of EFdA were blended with a Turbula T2F mixer at various ratios: 30, 35, 40, 45 and 50 wt % drug. The pre-blend was hot melt extruded with an 18 mm Leistritz twin screw extruder with a 25:1 L/D, throughput of 400 g/hr, temperatures ranging from 100-140° C., feed zone at 40° C., and screw speed at 30 rpm. Two screw configurations were used, both predominately consisting of conveying elements with different mixing sections. The less aggressive screw design contained a mixing section consisting of conveying, kneading elements each 15 mm in length, with twisting angles of 30°, 60°, and 60° (“HME low shear Process A”). The more aggressive screw design included additional mixing segments after the mixing section used in the less aggressive design: conveying, kneading elements each 15 mm in length, with a twisting angle of 90° (“HME high shear Process B”). For both extrusion set-ups, the strands were then air-cooled and pelletized to form micropellets. The pellets were then extruded with a ½″ American Kuhne single screw extruder with temperatures ranging from 110-140° C., feed zone at 25° C., and screw speed at 20-25 rpm to form a 2±0.05 mm diameter filament, and then cut to a length of 40±2 mm. […]

SMILES strings stand for the structures.

Consider `C#C[C@]1(COP(=O)(O)OP(=O)(O)OP(=O)(O)O)O[C@@H](n2cnc3c(N)nc(F)nc32)C[C@@H]1O` [EFdA-TP], for which the Intracellular half-life result in data set [1] is “exceeds 72 hrs”.
With `C#C[C@]1(CO)O[C@@H](n2cnc3c(N)nc(F)nc32)C[C@@H]1O` [Form 1, 4′-Ethynyl-2-fluoro-2′-deoxyadenosine], the Solubility is reported as 2.15 ± 0.02 mg/g solv in data set [2] (25.0 °C); 2.43 ± 0.01 mg/g solv in data set [2] (35.0 °C); 3.44 ± 0.02 mg/g solv in data set [2] (45.0 °C); 4.74 ± 0.02 mg/g solv in data set [2] (55.0 °C); 6.81 ± 0.03 mg/g solv in data set [2] (65.0 °C). The “Solubility Ratio (Form 1/4)” value was determined as 1.15 in data set [2] (25.0 °C); 1.13 in data set [2] (35.0 °C); 1.08 in data set [2] (45.0 °C); 1.12 in data set [2] (55.0 °C); 1.13 in data set [2] (65.0 °C). Moreover, in data set [2] (between 25.0 and 65.0 °C), the “ΔΔG for conversion of Form 1 to Form 4 (energy gap)” value fell in the range of 0.0502 to 0.0837 kcal/mol. For the same compound, the “Form 1 and Form 4 ΔΔG” value is 0.0837 kcal/mol in data set [2] (25.0 °C); 0.0789 kcal/mol in data set [2] (35.0 °C); 0.0502 kcal/mol in data set [2] (45.0 °C); 0.0717 kcal/mol in data set [2] (55.0 °C); 0.0789 kcal/mol in data set [2] (65.0 °C).
On to `C#C[C@]1(CO)O[C@@H](n2cnc3c(N)nc(F)nc32)C[C@@H]1O` [Form 2, 4′-Ethynyl-2-fluoro-2′-deoxyadenosine], for which the Solubility amounted to 2.43 ± 0.01 mg/g solv in data set [2] (25.0 °C); 3.20 ± 0.03 mg/g solv in data set [2] (35.0 °C); 4.39 ± 0.04 mg/g solv in data set [2] (45.0 °C); 5.79 ± 0.09 mg/g solv in data set [2] (55.0 °C); 7.72 ± 0.12 mg/g solv in data set [2] (65.0 °C). The “Relative thermodynamic stability of the phase” value in data set [2] is recorded as “least stable phase”.
With `C#C[C@]1(CO)O[C@@H](n2cnc3c(N)nc(F)nc32)C[C@@H]1O` [Form 4, 4′-Ethynyl-2-fluoro-2′-deoxyadenosine], the “Critical water activity, EFdA monohydrate/Form 4 system” value in data set [3] stood at 0.3. Besides, the Solubility in data set [2] (25.0 °C) is reported as 1.87 ± 0.02 mg/g solv; in data set [2] (35.0 °C), 2.14 ± 0.02 mg/g solv; in data set [2] (45.0 °C) it was 3.18 ± 0.01 mg/g solv; in data set [2] (55.0 °C), 4.24 ± 0.01 mg/g solv; in data set [2] (65.0 °C), 6.05 ± 0.05 mg/g solv. Further, the “Relative thermodynamic stability of the phase” value in data set [2] is given as “most thermodynamically stable phase”.
For `C#C[C@]1(CO)O[C@@H](n2cnc3c(N)nc(F)nc32)C[C@@H]1O` [Form MH, 4′-Ethynyl-2-fluoro-2′-deoxyadenosine], the “Crystal form after HME processing” value in data set [4] (HME high shear Process B) is “converted the Form MH phase into anhydrate Form 4”; in data set [4] (HME low shear Process A) it was “converted the Form MH phase into anhydrate Form 1 and anhydrate Form 2”.
